Paper PMC4295010 (Journal of the American Chemical Society, 2014)
Where a SMILES comes first, the peptide text is derived from it. [ ]: non-standard residue; d: D form.

How the values were obtained:
HeLa cells [1] = experiment: NBD-Van staining of aggregates on HeLa cells, confocal; type: cell-based; conditions: NBD-Van (6 μM) alone
[2] = isothermal titration calorimetry; type: binding; conditions: ITC of 2 with Van, 25 °C, Figure S6
HeLa cells [3] = experiment: MTT cell viability, HeLa; type: cell-based
[4] = aggregation of 1 by UV absorption change of the supernatant; type: physicochemical; conditions: over time, Figure S3, varying [Van]0

In the case of “7-nitrobenzofurazan-derivatized vancomycin [NBD-Van]”, the “fluorescent aggregates with HeLa cells” value (HeLa cells [1]) is reported as “few aggregates on the cells”.
With `CC(=O)N[C@@H](CCCCN)C(=O)NCC(=O)NCC(=O)N[C@H](C)C(=O)N[C@H](C)C(=O)O` [compound 2] (Ac-KGG[dA][dA]-OH) the Kd [2] was 135 µM, the binding ratio n [2] was 1 and the inhibition of proliferation (HeLa cells [3]; with addition of Van at 500 μM) was “scarcely inhibits”. The inhibition of proliferation (HeLa cells [3]; without addition of Van, at 500 μM) was “scarcely inhibits”.
For `CN[C@H](CC(C)C)C(=O)N[C@H]1C(=O)N[C@@H](CC(N)=O)C(=O)N[C@H]2C(=O)N[C@H]3C(=O)N[C@H](C(=O)N[C@H](C(=O)O)c4cc(O)cc(O)c4-c4cc3ccc4O)[C@H](O)c3ccc(c(Cl)c3)Oc3cc2cc(c3O[C@@H]2O[C@H](CO)[C@@H](O)[C@H](O)[C@H]2O[C@H]2C[C@](C)(N)[C@H](O)[C@H](C)O2)Oc2ccc(cc2Cl)[C@H]1O` [Van, vancomycin, reference compound], the cytotoxicity (HeLa cells [3]; alone, concentration as high as 500 μM, MTT) was “innocuous” and the “amount of Van in the aggregates” value [4] was “decreases with time”.
